Earlier results as cited in patent US6362158B1, “Multi-phase clear fabric softening composition” (Colgate-Palmolive Co., priority 2000, dated 2002).
“And” between values parts separate entries of the source, which are not always exact repeats. Identical values can stand only once.

settings: solvent; logarithm to base 10 of P

Structure (SMILES)	log P (octanol/water partition coefficient)
OCCCCO [1-4 Butanediol]	(log P = −1.3)
CCCCCCCCCCO [Decanol]	3.32)
CCCOC(C)COC(C)CO (centres unmarked) [DPnP, dipropylene glycol n-propyl ether]	0.99)^2
CCCCCCCCO [Octanol]	3.15)
CCCCCO [Pentanol]	1.3
CCCCOC(C)COC(C)COC(C)CO (centres unmarked) [TPnB, tripropylene glycol n-butyl ether]	1.896 and 1.9
CC(C)C(O)C(C)(C)CO (centres unmarked) [Trimethyl Pentanediol]	1.24

same assay, conditions: solvent; logarithm to base 10 of P; listed as dipropylene glycol n-propyl ether

Structure (SMILES)	log P (octanol/water partition coefficient)
CCCOC(C)COC(C)CO (centres unmarked) [DPnP, dipropylene glycol n-propyl ether]	0.994
